Measured values reported in PubChem BioAssay AID330 (DTP/NCI, 2004).
Values joined by “and” are separate entries in the source; they are usually repeats but may differ in a detail not shown here. Identical values can stand only once. Toxic doses and inconclusive results are not listed. The calls were made as follows: active = survival T/C of 150% or more; inactive = T/C below 125% in these data.

System: P388 leukemia ip, CD2F1 mice, survival T/C
Assay: NCI In Vivo Anticancer Drug Screen. Data for tumor model P388 Leukemia (intraperitoneal) in CD2F1 (CDF1) mice
Conditions: endpoint: median survival time, higher = longer survival
Outline: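 Mice carrying the transplanted tumor received test compound or vehicle. Survival was recorded in each group, and the value is the treated-group measurement divided by that of the vehicle-treated control group.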

[1] = dose: 60.0 mg/kg/injection, schedule: Q01DX005 (ip), vehicle: Klucel (hydroxypropylcellulose) (HPC)
[2] = dose: 120.0 mg/kg/injection, schedule: Q01DX005 (ip), vehicle: Klucel (hydroxypropylcellulose) (HPC)
[3] = dose: 240.0 mg/kg/injection, schedule: Q01DX005 (ip), vehicle: Klucel (hydroxypropylcellulose) (HPC)
[4] = dose: 50.0 mg/kg/injection, schedule: Q01DX009 (ip), vehicle: saline
[5] = dose: 100.0 mg/kg/injection, schedule: Q01DX009 (ip), vehicle: saline
[6] = dose: 200.0 mg/kg/injection, schedule: Q01DX009 (ip), vehicle: saline
[7] = dose: 50.0 mg/kg/injection, schedule: Q01DX005 (ip), vehicle: saline with Tween-80
[8] = dose: 100.0 mg/kg/injection, schedule: Q01DX005 (ip), vehicle: saline with Tween-80
[9] = dose: 200.0 mg/kg/injection, schedule: Q01DX005 (ip), vehicle: saline with Tween-80
[10] = dose: 60.0 mg/kg/injection, schedule: Q01DX005 (ip), vehicle: saline with Tween-80
[11] = dose: 120.0 mg/kg/injection, schedule: Q01DX005 (ip), vehicle: saline with Tween-80
[12] = dose: 240.0 mg/kg/injection, schedule: Q01DX005 (ip), vehicle: saline with Tween-80
[13] = dose: 25.0 mg/kg/injection, schedule: Q01DX009 (ip), vehicle: saline

Measured: T/C

Cn1c(=O)c2c(ncn2CCNC(c2ccccc2)c2cccc(Cl)c2)n(C)c1=O (centres undefined)
inactive: dose: 6.25 mg/kg/injection, schedule: Q01DX005 (ip), vehicle: alkali diluted with saline 101 % of control | dose: 12.5 mg/kg/injection, schedule: Q01DX005 (ip), vehicle: alkali diluted with saline 94 % of control | dose: 25.0 mg/kg/injection, schedule: Q01DX005 (ip), vehicle: alkali diluted with saline 97 % of control

Nc1[nH]c(=S)[nH]c(=O)c1NS(=O)(=O)c1ccccc1[N+](=O)[O-]
inactive: dose: 30.0 mg/kg/injection, schedule: Q01DX005 (ip), vehicle: Klucel (hydroxypropylcellulose) (HPC) 100 % of control and 94 % of control | [1] 98 % of control and 100 % of control | [2] 100 % of control and 97 % of control | [3] 100 % of control

O=S(=O)(O)c1ccc2c(-c3ccccc3)c3ccccc3c(-c3ccccc3)c2c1
inactive: [1] 99 % of control | [2] 100 % of control | [3] 98 % of control

CCOP(=O)(CC(=O)O)OCC
inactive: [4] 100 % of control | [5] 102 % of control | [6] 93 % of control

Nc1ncc2c(n1)CCCC2
inactive: [7] 98 % of control | [8] 98 % of control | [9] 100 % of control

O=Cc1cc(/C=N/Nc2ccccc2C(=O)O)nc2[nH]c(=O)ccc12
inactive: dose: 100.0 mg/kg/injection, schedule: Q04DX002 (ip), vehicle: Klucel (hydroxypropylcellulose) (HPC) 107 % of control | dose: 200.0 mg/kg/injection, schedule: Q04DX002 (ip), vehicle: Klucel (hydroxypropylcellulose) (HPC) 102 % of control | dose: 400.0 mg/kg/injection, schedule: Q04DX002 (ip), vehicle: Klucel (hydroxypropylcellulose) (HPC) 101 % of control

O=C(Oc1ccc(OC(=O)c2ccc([N+](=O)[O-])cc2)cc1)c1ccccc1
inactive: dose: 50.0 mg/kg/injection, schedule: Q04DX003 (ip), vehicle: saline 101 % of control | dose: 100.0 mg/kg/injection, schedule: Q01DX001 (ip), vehicle: Klucel (hydroxypropylcellulose) (HPC) 95 % of control | dose: 100.0 mg/kg/injection, schedule: Q04DX003 (ip), vehicle: saline 95 % of control | dose: 200.0 mg/kg/injection, schedule: Q01DX001 (ip), vehicle: Klucel (hydroxypropylcellulose) (HPC) 95 % of control | dose: 200.0 mg/kg/injection, schedule: Q04DX003 (ip), vehicle: saline 102 % of control | dose: 400.0 mg/kg/injection, schedule: Q01DX001 (ip), vehicle: Klucel (hydroxypropylcellulose) (HPC) 101 % of control | dose: 400.0 mg/kg/injection, schedule: Q04DX003 (ip), vehicle: saline 96 % of control

N#C/C(=C\Nc1ccccn1)C(=O)C1CC1
inactive: [10] 100 % of control | [11] 92 % of control | [12] 91 % of control

CO/N=C1\CC[C@@]2(C)[C@@H](CC[C@@H]3[C@@H]2CC[C@]2(C)C([C@H](C)CCCC(C)C)CC[C@@H]32)C1 (some centres undefined)
inactive: [7] 97 % of control | [8] 95 % of control | [9] 100 % of control

CCN(CC)CCOC(=O)c1ccc(NC(=O)Nc2ccc(C(=O)OCCN(CC)CC)cc2)cc1
inactive: [13] 102 % of control | [4] 107 % of control | [5] 118 % of control

[N-]=[N+]=NCc1cnnn1C1OC(CO)C(O)C1O (centres undefined)
inactive: dose: 60.0 mg/kg/injection, schedule: Q01DX005 (ip), vehicle: saline 102 % of control | dose: 120.0 mg/kg/injection, schedule: Q01DX005 (ip), vehicle: saline 115 % of control | dose: 240.0 mg/kg/injection, schedule: Q01DX005 (ip), vehicle: saline 99 % of control

Cc1ccc(NC(=S)SCc2ccc(Cl)c(Cl)c2)cc1Cl
inactive: dose: 50.0 mg/kg/injection, schedule: Q01DX009 (ip), vehicle: suspension in saline 112 % of control | dose: 100.0 mg/kg/injection, schedule: Q01DX009 (ip), vehicle: suspension in saline 115 % of control | dose: 200.0 mg/kg/injection, schedule: Q01DX009 (ip), vehicle: suspension in saline 116 % of control

O=C1OC(c2c[nH]c3ccccc3c2=O)c2ccccc21 (centres undefined)
inactive: [10] 103 % of control | [11] 95 % of control | [12] 88 % of control

Oc1c(CN2CCCC2)cc(Nc2cc(/C=C/c3ccc(Cl)cc3)nc(/C=C\c3ccc(Cl)cc3)n2)cc1CN1CCCC1
inactive: dose: 0.62 mg/kg/injection, schedule: Q01DX009 (ip), vehicle: saline with Tween-80 103 % of control | dose: 1.25 mg/kg/injection, schedule: Q01DX009 (ip), vehicle: saline with Tween-80 112 % of control | dose: 2.5 mg/kg/injection, schedule: Q01DX009 (ip), vehicle: saline with Tween-80 105 % of control | dose: 5.0 mg/kg/injection, schedule: Q01DX009 (ip), vehicle: saline with Tween-80 106 % of control | dose: 10.0 mg/kg/injection, schedule: Q01DX009 (ip), vehicle: saline with Tween-80 92 % of control

CNC(=O)c1ccccc1Sc1ccccc1C(=O)NC
inactive: dose: 100.0 mg/kg/injection, schedule: Q01DX001 (ip), vehicle: other 100 % of control | dose: 200.0 mg/kg/injection, schedule: Q01DX001 (ip), vehicle: other 101 % of control | dose: 400.0 mg/kg/injection, schedule: Q01DX001 (ip), vehicle: other 100 % of control

CCCCOP(O)(=S)OCCCC
inactive: dose: 100.0 mg/kg/injection, schedule: Q04DX002 (ip), vehicle: saline with Tween-80 108 % of control | dose: 100.0 mg/kg/injection, schedule: Q04DX003 (ip), vehicle: saline with Tween-80 105 % of control and 100 % of control | dose: 200.0 mg/kg/injection, schedule: Q04DX002 (ip), vehicle: saline with Tween-80 104 % of control | dose: 200.0 mg/kg/injection, schedule: Q04DX003 (ip), vehicle: saline with Tween-80 106 % of control and 100 % of control | dose: 400.0 mg/kg/injection, schedule: Q04DX002 (ip), vehicle: saline with Tween-80 95 % of control | dose: 400.0 mg/kg/injection, schedule: Q04DX003 (ip), vehicle: saline with Tween-80 101 % of control and 106 % of control

CCCCC(N)P(=O)(O)O (centres undefined)
inactive: dose: 12.5 mg/kg/injection, schedule: Q01DX009 (ip), vehicle: saline 87 % of control | [13] 92 % of control | [4] 86 % of control | [5] 97 % of control

[Co+2].[O-]c1cc2ccccc2cc1/C=N/c1ccccn1.[O-]c1cc2ccccc2cc1/C=N/c1ccccn1.[OH3+].[OH3+]
inactive: dose: 12.5 mg/kg/injection, schedule: Q04DX002 (ip), vehicle: saline with Tween-80 93 % of control | dose: 25.0 mg/kg/injection, schedule: Q04DX002 (ip), vehicle: saline with Tween-80 91 % of control | dose: 50.0 mg/kg/injection, schedule: Q04DX002 (ip), vehicle: saline with Tween-80 88 % of control

Cc1onc(-c2ccccc2)c1C(=O)c1ccccc1
inactive: [4] 99 % of control | [5] 100 % of control | [6] 99 % of control

CC1=CC(O)(c2ccccn2)P(=O)(c2ccccc2)C=C1C (centres undefined)
inactive: [1] 115 % of control | [2] 111 % of control | [3] 99 % of control

O=c1c(O)c(-c2ccccc2)c1=O
inactive: dose: 25.0 mg/kg/injection, schedule: Q01DX005 (ip), vehicle: Klucel (hydroxypropylcellulose) (HPC) 98 % of control | dose: 50.0 mg/kg/injection, schedule: Q01DX005 (ip), vehicle: Klucel (hydroxypropylcellulose) (HPC) 100 % of control | dose: 100.0 mg/kg/injection, schedule: Q01DX005 (ip), vehicle: Klucel (hydroxypropylcellulose) (HPC) 98 % of control
